{
  "source": "ChEMBL document CHEMBL4052759",
  "about": "“Discovery of DS79182026: A potent orally active hepcidin production inhibitor” (Bioorg Med Chem Lett, 2017)",
  "key": {"[1]": {"biological_target": "Tyrosine-protein kinase BTK (Homo sapiens) (UniProt Q06187)", "assay": "Inhibition of BTK (unknown origin) at 0.078 uM relative to control"}, "Homo sapiens": {"species_on_record": "Homo sapiens", "assay": "Inhibition of PKA (unknown origin) at 0.078 uM relative to control"}, "[2]": {"biological_target": "Tyrosine-protein kinase Lck (Homo sapiens) (UniProt P06239)", "assay": "Inhibition of LCK (unknown origin) at 0.078 uM relative to control"}, "[3]": {"biological_target": "Protein kinase C epsilon type (Homo sapiens) (UniProt Q02156)", "assay": "Inhibition of PKC-epsilon (unknown origin) at 0.49 uM relative to control"}, "[4]": {"biological_target": "Ephrin type-A receptor 3 (Homo sapiens) (UniProt P29320)", "assay": "Inhibition of EPHA3 (unknown origin) at 0.49 uM relative to control"}, "[5]": {"biological_target": "Calcium/calmodulin-dependent protein kinase type II subunit gamma (Homo sapiens) (UniProt Q13555)", "assay": "Inhibition of CaMK2-gamma (unknown origin) at 0.49 uM relative to control"}, "[6]": {"biological_target": "Maternal embryonic leucine zipper kinase (Homo sapiens) (UniProt Q14680)", "assay": "Inhibition of MELK (unknown origin) at 0.49 uM relative to control"}, "[7]": {"tested_on": "Mitogen-activated protein kinase 14 (Homo sapiens), Q16539 [T106M]", "assay": "Inhibition of SAPK2a T106M mutant (unknown origin) at 0.49 uM relative to control"}, "[8]": {"biological_target": "Calcium/calmodulin-dependent protein kinase type 1 (Homo sapiens) (UniProt Q14012)", "assay": "Inhibition of CaMK1a (unknown origin) at 0.49 uM relative to control"}, "[9]": {"biological_target": "Receptor tyrosine-protein kinase erbB-4 (Homo sapiens) (UniProt Q15303)", "assay": "Inhibition of HER4 (unknown origin) at 0.49 uM relative to control"}, "[10]": {"biological_target": "Fibroblast growth factor receptor 1 (Homo sapiens) (UniProt P11362)", "assay": "Inhibition of FGFR1 (unknown origin) at 0.49 uM relative to control"}, "[11]": {"biological_target": "Tyrosine-protein kinase TXK (Homo sapiens) (UniProt P42681)", "assay": "Inhibition of TXK (unknown origin) at 0.49 uM relative to control"}, "[12]": {"tested_on": "Fibroblast growth factor receptor 4 (Homo sapiens), P22455 [V550L]", "assay": "Inhibition of FGFR4 V550L mutant (unknown origin) at 0.49 uM relative to control"}, "[13]": {"biological_target": "Tyrosine-protein kinase Blk (Homo sapiens) (UniProt P51451)", "assay": "Inhibition of BLK (unknown origin) at 0.49 uM relative to control"}, "[14]": {"biological_target": "Glycogen synthase kinase-3 alpha (Homo sapiens) (UniProt P49840)", "assay": "Inhibition of GSK3-alpha (unknown origin) at 0.49 uM relative to control"}, "[15]": {"biological_target": "Calcium/calmodulin-dependent protein kinase type II subunit alpha (Homo sapiens) (UniProt Q9UQM7)", "assay": "Inhibition of CaMK2a (unknown origin) at 0.49 uM relative to control"}, "[16]": {"biological_target": "Dual specificity tyrosine-phosphorylation-regulated kinase 2 (Homo sapiens) (UniProt Q92630)", "assay": "Inhibition of DYRK2 (unknown origin) at 0.49 uM relative to control"}, "[17]": {"biological_target": "Protein kinase C alpha type (Homo sapiens) (UniProt P17252)", "assay": "Inhibition of PKC-alpha (unknown origin) at 0.49 uM relative to control"}, "[18]": {"biological_target": "Mitogen-activated protein kinase 1 (Homo sapiens) (UniProt P28482)", "assay": "Inhibition of Erk2 (unknown origin) at 0.49 uM relative to control"}, "[19]": {"biological_target": "T1, Calcium/calmodulin-dependent protein kinase type IV (Homo sapiens) (UniProt Q16566)", "T1 sequence (whole entry)": "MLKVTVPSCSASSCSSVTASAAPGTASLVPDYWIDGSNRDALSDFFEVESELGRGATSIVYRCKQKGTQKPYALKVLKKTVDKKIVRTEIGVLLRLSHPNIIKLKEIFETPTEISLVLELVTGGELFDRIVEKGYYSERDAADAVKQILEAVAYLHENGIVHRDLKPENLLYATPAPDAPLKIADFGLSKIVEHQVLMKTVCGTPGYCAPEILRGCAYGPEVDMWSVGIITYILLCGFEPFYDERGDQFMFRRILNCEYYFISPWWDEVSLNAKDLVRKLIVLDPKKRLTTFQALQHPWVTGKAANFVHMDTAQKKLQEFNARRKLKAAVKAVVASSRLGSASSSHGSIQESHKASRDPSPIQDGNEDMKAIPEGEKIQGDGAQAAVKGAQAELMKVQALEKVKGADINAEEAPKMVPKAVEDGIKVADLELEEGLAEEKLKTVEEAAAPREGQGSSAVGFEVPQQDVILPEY", "assay": "Inhibition of CAMK4 (unknown origin) at 0.49 uM relative to control"}, "[20]": {"biological_target": "Epidermal growth factor receptor (Homo sapiens) (UniProt P00533)", "assay": "Inhibition of EGFR (unknown origin) at 0.45 uM relative to control"}, "[21]": {"tested_on": "Platelet-derived growth factor receptor alpha (Homo sapiens), P16234 [V561D]", "assay": "Inhibition of PDGFRA V561D mutant (unknown origin) at 0.45 uM relative to control"}, "[22]": {"biological_target": "Tyrosine-protein kinase TXK (Homo sapiens) (UniProt P42681)", "assay": "Inhibition of TXK (unknown origin) at 0.45 uM relative to control"}, "[23]": {"biological_target": "ALK tyrosine kinase receptor (Homo sapiens) (UniProt Q9UM73)", "assay": "Inhibition of ALK (unknown origin) at 0.45 uM relative to control"}, "[24]": {"biological_target": "Serine/threonine-protein kinase pim-3 (Homo sapiens) (UniProt Q86V86)", "assay": "Inhibition of PIM3 (unknown origin) at 0.45 uM relative to control"}, "[25]": {"biological_target": "BDNF/NT-3 growth factors receptor (Homo sapiens) (UniProt Q16620)", "assay": "Inhibition of NTRK2 (unknown origin) at 0.45 uM relative to control"}, "[26]": {"biological_target": "Serine/threonine-protein kinase DCLK2 (Homo sapiens) (UniProt Q8N568)", "assay": "Inhibition of DCAMKL2 (unknown origin) at 0.45 uM relative to control"}, "[27]": {"biological_target": "Phosphorylase b kinase gamma catalytic chain, liver/testis isoform (Homo sapiens) (UniProt P15735)", "assay": "Inhibition of PhKg2 (unknown origin) at 0.45 uM relative to control"}, "[28]": {"biological_target": "Serine/threonine-protein kinase Sgk3 (Homo sapiens) (UniProt Q96BR1)", "assay": "Inhibition of SGK3 (unknown origin) at 0.45 uM relative to control"}, "[29]": {"biological_target": "Serine/threonine-protein kinase PAK 5 (Homo sapiens) (UniProt Q9P286)", "assay": "Inhibition of PAK5 (unknown origin) at 0.45 uM relative to control"}},
  "data": [
    {"smiles": "COC(=O)Nc1noc2cc(-c3c(-c4ccccn4)n[nH]c3C)ccc12", "values": [
      {"measurement": "inhibition", "setting": "[1]", "value": 7.7, "unit": "%"},
      {"measurement": "inhibition", "setting": "Homo sapiens", "value": -2.3, "unit": "%"},
      {"measurement": "inhibition", "setting": "[2]", "value": 4.7, "unit": "%"}
    ]},
    {"smiles": "Cc1[nH]nc(C2CC2)c1-c1ccc2c(NC(=O)C3CC3)noc2c1", "values": [
      {"measurement": "inhibition", "setting": "[3]", "value": 4.7, "unit": "%"},
      {"measurement": "inhibition", "setting": "[4]", "value": 0.7, "unit": "%"},
      {"measurement": "inhibition", "setting": "[5]", "value": 6, "unit": "%"},
      {"measurement": "inhibition", "setting": "[6]", "value": 4, "unit": "%"},
      {"measurement": "inhibition", "setting": "[7]", "value": -0.3, "unit": "%"},
      {"measurement": "inhibition", "setting": "[8]", "value": 2.3, "unit": "%"},
      {"measurement": "inhibition", "setting": "[9]", "value": -10, "unit": "%"},
      {"measurement": "inhibition", "setting": "[10]", "value": 0.7, "unit": "%"},
      {"measurement": "inhibition", "setting": "[11]", "value": -0.3, "unit": "%"},
      {"measurement": "inhibition", "setting": "[12]", "value": 4, "unit": "%"},
      {"measurement": "inhibition", "setting": "[13]", "value": 1, "unit": "%"},
      {"measurement": "inhibition", "setting": "[14]", "value": 2, "unit": "%"},
      {"measurement": "inhibition", "setting": "[15]", "value": 1.3, "unit": "%"},
      {"measurement": "inhibition", "setting": "[16]", "value": 3.3, "unit": "%"},
      {"measurement": "inhibition", "setting": "[17]", "value": 2, "unit": "%"},
      {"measurement": "inhibition", "setting": "[18]", "value": -0.3, "unit": "%"},
      {"measurement": "inhibition", "setting": "[19]", "value": 2.3, "unit": "%"}
    ]},
    {"smiles": "Cc1n[nH]c(C)c1-c1ccc2c(NC(=O)c3ccc(N4CCN(C)CC4)cc3)n[nH]c2c1", "values": [
      {"measurement": "inhibition", "setting": "[20]", "value": -6, "unit": "%"},
      {"measurement": "inhibition", "setting": "[21]", "value": 30, "unit": "%"},
      {"measurement": "inhibition", "setting": "[22]", "value": -0.7, "unit": "%"},
      {"measurement": "inhibition", "setting": "[23]", "value": 26, "unit": "%"},
      {"measurement": "inhibition", "setting": "[24]", "value": -2.3, "unit": "%"},
      {"measurement": "inhibition", "setting": "[25]", "value": 85.7, "unit": "%"},
      {"measurement": "inhibition", "setting": "[26]", "value": 7, "unit": "%"},
      {"measurement": "inhibition", "setting": "[27]", "value": 1.7, "unit": "%"},
      {"measurement": "inhibition", "setting": "[28]", "value": 3.3, "unit": "%"},
      {"measurement": "inhibition", "setting": "[29]", "value": 5.3, "unit": "%"}
    ]}
  ]
}
